In patent US5854010A, “Bioassay for detecting 2,3,7,8-tetrachlorodibenzo-para-dioxin and TCDD-like compounds and novel recombinant cell line useful therefor” (priority 1997, dated 1998):

Test system: Hepa1-TAO cells (reduced levels of AhR)
Assay: TCDD-inducible luciferase activity, transient transfection with pGudLuc1.1
Assay type: cell-based, mouse
Experimental: In general, the expression vectors pGudLuc1.0 and pGudLuc1.1 were prepared as follows. A 1330-bp HindIII fragment or an 1810-bp HindIII fragment isolated from the plasmid, pMpap1.0 or pMpap1.1, respectively (see, El-Fouly et al., supra), was subcloned into the HindIII site immediately upstream of the luciferase gene in the plasmid pGL2-basic (purchased from Promega).
More specifically, the following cells were obtained from the source indicated. Wild-type and AhR-defective (BPRc1 and TAO, respectively) mouse hepatoma (Hepa1c1c7) cells (Hepa1), derived from a C57B1 mouse liver tumor, were obtained from J. P. Whitlock, Jr. (Stanford University). These cells were grown as previously described by Miller et al. in "Biochemical and Genetic Analysis of Variant Mouse Hepatoma Cells Defective in the Induction of Benzo(a)pyrene Metabolizing Enzyme Activity", J. Biol. Chem., Vol. 258, pp. 3523-3527 (1983). Additionally, mouse hepatoma (MLE/BV) cells, derived from a spontaneously immortalized C3H/HeN mouse liver cell, were obtained from B. V. Madhukar (Indiana University School of Medicine, Indianapolis, Ind.) and were grown as described for the Hepa1 cells. Rat hepatoma (H4IIe) cells, guinea pig intestinal adenocarcinoma (GPC16) cells, hamster lung (AHL) cells, human hepatoma (HepG2) cells, human breast tumor (MCF7) cells, and human intestinal epithelial (LS180) cells were obtained from the American Type Culture Collection (Rockville, Md.). Until transfection, all of the cells were maintained according to their respective cell-type-specific culture protocols.
Transfection was accomplished as follows. Using polybrene as previously described by Helferich et al. in "Photooxidized Products of Tryptophan Can Act as Dioxin Agonists", Mol. Pharmacol., Vol. 40, pp. 674-678 (1991), plates of cells (approximately 80% confluent) were transiently transfected with the desired plasmid (15 μg). Then, the transfected cells were allowed to grow for 48 hours, followed by the addition of either DMSO (1 μl/ml) or TCDD (1 nM) solubilized in DMSO, which was followed by incubation for 24 hours. Next, the plates were transferred onto ice, and the media were removed, after which the plates were rinsed twice with cold PBS. Then, 200 μl of luciferase lysis buffer (purchased from Promega) was used to lyse the cells. The lysed cell samples were collected and transferred into a microfuge tube. Cell debris was pelleted by centrifugation, and the supernatants were collected. The supernatant samples were assayed for TCDD-inducible luciferase activity in the following manner.
Using the stabilized luciferase assay system (purchased from Promega), luciferase activity in an aliquot of the cleared lysed cell supernatant (20 μl) was determined by mixing it with 100 µl of luciferase assay reagent (purchased from Promega) and measuring the resulting luminescence in a Turner Luminometer or Dynatech ML3000 microplate luminometer (light output was integrated over 1 minute after a delay time of 30 seconds).
Using a microplate adaptation of the method reported by Bradford in "A Rapid Sensitive Method for the Quantitation of Microgram Quantities of Protein Utilizing the Principle of Protein-Dye Binding", Anal. Biochem., […], pp. 248-254 (1976), luciferase activity was standardized to the protein concentration of the supernatant (with bovine serum albumin as the protein standard). Because of instrument differences in luminescence measurement and data output, luciferase activity was determined as relative light units (RLU) per microgram of protein, which was converted to milligram of protein as reported in the Tables below.

## Clc1cc2c(cc1Cl)Oc1cc(Cl)c(Cl)cc1O2 [TCDD, 2,3,7,8-tetrachlorodibenzo-para-dioxin]
Luc1.1, TCDD 1 nM, 24 h
  Luciferase activity, TCDD in DMSO: 1.8 RLU/mg protein
Mus musculus, Luc1.1, TCDD 1 nM vs DMSO
  fold induction: 4.5
pGudLuc1.1, TCDD 1 nM
  Inducibility of luciferase activity: reduced inducibility
